Assay results as given in patent US10231452B2, “Thiopicolinamide compounds with fungicidal activity” (Dow AgroSciences LLC, priority 2016, dated 2019).
Read-outs that look alike come from different tables or passages of the source.

Assays:
[1] = system: Puccinia triticina; test: Fungicidal activity: wheat brown rust (PUCCRT), disease control on wheat seedlings; assay type: in vivo; settings: wheat (Yuma); for pest or weed control at 100 ppm: high volume application; for pest or weed control at 121.5 g/ha: low volume application, 121.5 g/H
Description: Technical grades of materials were dissolved in acetone, which were then mixed with nine volumes of water (H2O) containing 110 ppm Triton X-100. The fungicide solutions were applied onto wheat seedlings using an automated booth sprayer to run-off. All sprayed plants were allowed to air dry prior to further handling. All fungicides were evaluated using the aforementioned method for their activity vs. all target diseases, unless stated otherwise. Wheat leaf blotch and brown rust activity were also evaluated using track spray applications, in which case the fungicides were formulated as EC formulations, containing 0.1% Trycol 5941 in the spray solutions.
Evaluation of Fungicidal Activity: Wheat Brown Rust (Puccinia Triticina; Synonym: Puccinia recondita f. Sp. Tritici; Bayer Code PUCCRT)
Wheat plants (variety Yuma) were grown from seed in a greenhouse in 50% mineral soil/50% soil-less Metro mix until the first leaf was fully emerged, with 7-10 seedlings per pot. These plants were inoculated with an aqueous spore suspension of Puccinia triticina either prior to or after fungicide treatments. After inoculation the plants were kept in a dark dew room at 22° C. with 100% relative humidity overnight to permit spores to germinate and infect the leaf. The plants were then transferred to a greenhouse set at 24° C. for disease to develop. Fungicide formulation, application and disease assessment followed the procedures as described in the Example A. The results of the evaluation are shown below in Table 4.

[2] = system: Zymoseptoria tritici; test: Fungicidal activity: leaf blotch of wheat (SEPTTR), disease control on wheat seedlings; assay type: in vivo; settings: wheat (Yuma); for pest or weed control at 100 ppm: high volume application; for pest or weed control at 121.5 g/ha: low volume application, 121.5 g/H
Description: Evaluation of Fungicidal Activity: Leaf Blotch of Wheat (Zymoseptoria Tritici; Bayer Code […]) Technical grades of materials were dissolved in acetone, which were then mixed with nine volumes of water (H2O) containing 110 ppm Triton X-100. The fungicide solutions were applied onto wheat seedlings using an automated booth sprayer to run-off. All sprayed plants were allowed to air dry prior to further handling. All fungicides were evaluated using the aforementioned method for their activity vs. all target diseases, unless stated otherwise. Wheat leaf blotch and brown rust activity were also evaluated using track spray applications, in which case the fungicides were formulated as EC formulations, containing 0.1% Trycol 5941 in the spray solutions. Wheat plants (variety Yuma) were grown from seed in a greenhouse in 50% mineral soil/50% soil-less Metro mix until the first leaf was fully emerged, with 7-10 seedlings per pot. These plants were inoculated with an aqueous spore suspension of Zymoseptoria tritici either prior to or after fungicide treatments. After inoculation the plants were kept in 100% relative humidity (one day in a dark dew chamber followed by two to three days in a lighted dew chamber at 20° C.) to permit spores to germinate and infect the leaf. The plants were then transferred to a greenhouse set at 20° C. for disease to develop. When disease symptoms were fully expressed on the 1st leaves of untreated plants, infection levels were assessed on a scale of 0 to 100 percent disease severity. Percent disease control was calculated using the ratio of disease severity on treated plants relative to untreated plants.

[3] = system: Phakopsora pachyrhizi; test: Fungicidal activity: Asian soybean rust (PHAKPA), disease control on soybean seedlings; assay type: in vivo; settings: soybean (Williams 82)
Description: Evaluation of Fungicidal Activity: Asian Soybean Rust (Phakopsora pachyrhizi; Bayer Code PHAKPA)
Technical grades of materials were dissolved in acetone, which were then mixed with nine volumes of H2O containing 0.011% Tween 20. The fungicide solutions were applied onto soybean seedlings using an automated booth sprayer to run-off. All sprayed plants were allowed to air dry prior to further handling.
Soybean plants (variety Williams 82) were grown in soil-less Metro mix, with one plant per pot. Two weeks old seedlings were used for testing. Plants were inoculated either 3 days prior to or 1 day after fungicide treatments. Plants were incubated for 24 h in a dark dew room at 22° C. and 100% relative humidity then transferred to a growth room at 23° C. for disease to develop. Disease severity was assessed on the sprayed leaves.

[4] = 24 h, 1 day protectant, read-out: PUCCRT 1DP disease control, HV activity at 100 ppm
[5] = 72 h, 3 day curative, read-out: PUCCRT 3DC disease control, HV activity at 100 ppm
[6] = 24 h, 1 day protectant, read-out: SEPTTR 1DP disease control, HV activity at 100 ppm
[7] = 72 h, 3 day curative, read-out: SEPTTR 3DC disease control, HV activity at 100 ppm
[8] = 24 h, 1 day protectant, read-out: PUCCRT 1DP disease control, LV activity at 121.5 g/H
[9] = 72 h, 3 day curative, read-out: PUCCRT 3DC disease control, LV activity at 121.5 g/H
[10] = 24 h, 1 day protectant, read-out: SEPTTR 1DP disease control, LV activity at 121.5 g/H
[11] = 72 h, 3 day curative, read-out: SEPTTR 3DC disease control, LV activity at 121.5 g/H

| melting point | SMILES | pest or weed control at 100 ppm [1, 4] | pest or weed control at 100 ppm [1, 5] | pest or weed control at 100 ppm [2, 6] | pest or weed control at 100 ppm [2, 7] | pest or weed control at 121.5 g/ha [1, 8] | pest or weed control at 121.5 g/ha [1, 9] | pest or weed control at 121.5 g/ha [2, 10] | pest or weed control at 121.5 g/ha [2, 11] | pest or weed control at 25 ppm ([3]; 24 h, 1 day protectant, read-out: PHAKPA 1DP disease control at 25 ppm) | pest or weed control at 25 ppm ([3]; 72 h, 3 day curative, read-out: PHAKPA 3DC disease control at 25 ppm) |
| --- | --- | --- | --- | --- | --- | --- | --- | --- | --- | --- | --- |
| 60 to 72 °C | COc1cc(C)ccc1C(c1ccc(F)cc1OC)[C@H](C)OC(=O)[C@H](C)NC(=S)c1nccc(OC)c1O (some centres unmarked) [Compound 29] | > 80% | > 80% | > 80% | > 80% |  |  |  |  |  |  |
| 49 to 57 °C | COc1ccnc(C(=S)N[C@@H](C)C(=O)O[C@@H](C)[C@H](Oc2ccc(C)cc2)C2CCCC2)c1O [Compound 38] | > 80% | > 80% | > 80% | ≤ 80% |  |  |  |  |  |  |
|  | CCCCC[C@@H](OC(=O)[C@H](C)NC(=S)c1nccc(OC)c1OC(C)=O)[C@H](C)Oc1ccccc1 [Compound 41] |  |  |  |  | > 80% | > 80% | > 80% | > 80% |  |  |
|  | COc1cc(C)ccc1C(c1ccc(F)cc1OC)[C@H](C)OC(=O)[C@H](C)NC(=S)c1nccc(OC)c1OC(C)=O (some centres unmarked) [Compound 65] |  |  |  |  | > 80% | > 80% | > 80% | > 80% | > 80% | ≤ 80% |
